Test results taken from patent US7645753B2, “Benzothiazole, thiazolopyridine, benzooxazole and oxazolopyridine derivatives” (Hoffmann-La Roche Inc., priority 2005, dated 2010).

Biological target: T1, human subtype 5 somatostatin receptor (Homo sapiens, UniProt P35346)
T1 construct: host or cells: CHO cells, stably transfected; membranes prepared by sonication and fractionating centrifugation
Experiment: Radioligand binding to membranes of CHO cells expressing human SSTR5 (125I-labeled 11-Tyr somatostatin-14 tracer)
Settings: Ki calculated from IC50 by Cheng-Prussoff equation
Description: A CHO cell line stably transfected with a plasmid encoding the human subtype 5 somatostatin receptor (GenBank accession number D16827) was obtained from Euroscreen. Cells were cultured and used for binding and functional assays.
Membranes of these cells were prepared by sonication in the presence of protease inhibitors and subsequent fractionating centrifugation. The protein concentration in the membrane preparation was determined using a commercial kit (BCA kit, Pierce, USA). Membranes were stored at −80° C. until use. After thawing, membranes were diluted in assay buffer (50 mM Tris-HCl at pH 7.4, 5 mM MgCl2 and 0.20% BSA) and subjected to dounce homogenization.
For binding studies, 0.1 mL membrane suspension, corresponding to app. 6×10^−15 mol receptor, was incubated for 1 h at room temperature with 0.05 nM ^125I-labeled tracer (11-Tyr somatostatin-14, Perkin-Elmer) and either test compounds in varying concentrations or, for the determination of non-specific binding, 0.001 mM non-labeled somatostatin-14. The incubation was stopped by filtration through GF/B glassfiber filters and washing with ice-cold wash buffer (50 mM Tris-HCl at pH 7.4). The bound radioactivity was measured after application of a scintillation cocktail (Microscint 40) and expressed as disintegrations per minute (dpm).
The receptor concentration was determined in a prior saturation experiment where a fixed, arbitrary amount of membranes was incubated with a concentration range of radio-labeled tracer. This allows estimating the total number of specific binding sites per amount of protein (i.e., Bmax), typically between 1 and 5 pmol/mg.
The concentration of the test compound required to result in half maximal inhibition of binding of the radio-labeled tracer (IC50) was estimated from a concentration-versus-dpm graph. The binding affinity (Ki) was calculated from the IC50 by applying the Cheng-Prussoff equation for single binding sites.

T1 sequence (P35346 whole entry): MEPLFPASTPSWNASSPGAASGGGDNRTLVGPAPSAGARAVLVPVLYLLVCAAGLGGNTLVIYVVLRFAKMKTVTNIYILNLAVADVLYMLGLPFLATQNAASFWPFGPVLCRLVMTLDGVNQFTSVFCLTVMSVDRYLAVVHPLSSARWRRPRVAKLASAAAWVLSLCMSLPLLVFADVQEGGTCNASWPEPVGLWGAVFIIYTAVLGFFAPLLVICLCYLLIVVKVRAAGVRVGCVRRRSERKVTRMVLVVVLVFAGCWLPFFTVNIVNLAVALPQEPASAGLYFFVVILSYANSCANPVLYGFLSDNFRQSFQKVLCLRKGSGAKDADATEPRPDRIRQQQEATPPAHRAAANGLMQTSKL

Row | Ki [nM] | SMILES
1 | 4.1 | CCOc1cc(CN2CCC(Nc3nc4cc(S(N)(=O)=O)ccc4o3)CC2)cc(OCC)c1-n1cccc1 [Example 129, 2-[1-(3,5-diethoxy-4-pyrrol-1-yl-benzyl)-piperidin-4-ylamino]-benzooxazole-5-sulfonic acid amide]
2 | 293 | CCOc1cc(CN2CCC(Nc3nc4cc(NC(=O)CC)ccc4o3)CC2)ccc1OC [Example 243, N-{2-[1-(3-ethoxy-4-methoxy-benzyl)-piperidin-4-ylamino]-benzooxazol-5-yl}-propionamide]
3 | 59 | CCOc1cc(CN2CCC(Nc3nc4ccc(Cl)cc4o3)CC2)cc(OCC)c1-n1cccc1 [Example 94, (6-chloro-benzooxazol-2-yl)-[1-(3,5-diethoxy-4-pyrrol-1-yl-benzyl)-piperidin-4-yl]-amine]
